# Source: ChEMBL document CHEMBL1124283, “1,4-Dihydropyridine antagonist activities at the calcium channel: a quantitative structure-activity relationship approach” (J Med Chem, 1988)
# Assays:
# [1] = Compound was tested for its antagonist activity against calcium channel; format: functional, Homo sapiens
# Cavia porcellus = species on record: Cavia porcellus; experiment: Effective concentration required to produce mechanical response determined in muscle strips of guinea pig; format: functional; conditions: Muscle tissue, read-out: Log 1/EC50 (converted)
smiles,measurement,setting,value
COC(=O)C1=C(C)N=C(C)/C(=C(\O)OC)C1c1ccc(C)cc1 (stereo not drawn),Log 1/IC50,[1],7.18
COC(=O)C1=C(C)N=C(C)/C(=C(\O)OC)C1c1ccccc1C(F)(F)F (stereo not drawn),EC50,Cavia porcellus,0.00151 µM
COC(=O)C1=C(C)N=C(C)/C(=C(\O)OC)C1c1ccccc1OC (stereo not drawn),EC50,Cavia porcellus,0.0575 µM
same,Log 1/IC50,[1],7.87
COC(=O)C1=C(C)N=C(C)/C(=C(\O)OC)C1c1cccc([N+](C)(C)C)c1 (stereo not drawn),EC50,Cavia porcellus,50.1 µM
same,Log 1/IC50,[1],< 5
COC(=O)C1=C(C)N=C(C)/C(=C(\O)OC)C1c1ccccc1C#N (stereo not drawn),EC50,Cavia porcellus,0.0158 µM
same,Log 1/IC50,[1],9.18
COC(=O)C1=C(C)N=C(C)/C(=C(\O)OC)C1c1cccc(O)c1 (stereo not drawn),EC50,Cavia porcellus,1 µM
COC(=O)C1=C(C)N=C(C)/C(=C(\O)OC)C1c1cc(C)ccc1C (stereo not drawn),EC50,Cavia porcellus,0.1 µM
COC(=O)C1=C(C)N=C(C)/C(=C(/O)OC)C1c1cccc(Cl)c1 (stereo not drawn),EC50,Cavia porcellus,0.0158 µM
same,Log 1/IC50,[1],9.3
C=Cc1ccccc1C1C(C(=O)OC)=C(C)N=C(C)/C1=C(\O)OC (stereo not drawn),EC50,Cavia porcellus,0.00447 µM
COC(=O)C1=C(C)N=C(C)/C(=C(\O)OC)C1c1ccccc1F (stereo not drawn),EC50,Cavia porcellus,0.0427 µM
same,Log 1/IC50,[1],8.44
COC(=O)C1=C(C)N=C(C)/C(=C(\O)OC)C1c1ccccc1Cl (stereo not drawn),EC50,Cavia porcellus,0.00219 µM
same,Log 1/IC50,[1],9.78
COC(=O)C1=C(C)N=C(C)/C(=C(/O)OC)C1c1c(F)cccc1Cl (stereo not drawn),EC50,Cavia porcellus,0.00759 µM
same,Log 1/IC50,[1],8.37
COC(=O)C1=C(C)N=C(C)/C(=C(\O)OC)C1c1cccc(C#N)c1 (stereo not drawn),EC50,Cavia porcellus,0.0347 µM
same,Log 1/IC50,[1],8.68
COC(=O)C1=C(C)N=C(C)/C(=C(\O)OC)C1c1cc(OC)c(OC)cc1OC (stereo not drawn),EC50,Cavia porcellus,1000 µM
COC(=O)C1=C(C)N=C(C)/C(=C(\O)OC)C1c1cccc(OC(=O)c2ccccc2)c1 (stereo not drawn),EC50,Cavia porcellus,6.31 µM
COC(=O)C1=C(C)N=C(C)/C(=C(\O)OC)C1c1cccc(F)c1 (stereo not drawn),EC50,Cavia porcellus,0.0209 µM
same,Log 1/IC50,[1],8.49
COC(=O)C1=C(C)N=C(C)/C(=C(\O)OC)C1c1cccc(C(F)(F)F)c1 (stereo not drawn),EC50,Cavia porcellus,0.0741 µM
COC(=O)C1=C(C)N=C(C)/C(=C(\O)OC)C1c1cccc(N)c1 (stereo not drawn),EC50,Cavia porcellus,2 µM
COC(=O)C1=C(C)N=C(C)/C(=C(\O)OC)C1c1ccc(F)cc1 (stereo not drawn),EC50,Cavia porcellus,0.129 µM
same,Log 1/IC50,[1],7.46
COC(=O)C1=C(C)NC(C)=C(C(=O)OC)C1c1ccccc1[N+](=O)[O-] [NIFEDIPINE],EC50,Cavia porcellus,0.00513 µM
same,Log 1/IC50,[1],9.08
COC(=O)C1=C(C)N=C(C)/C(=C(\O)OC)C1c1cccc(N(C)C)c1 (stereo not drawn),EC50,Cavia porcellus,0.891 µM
CCOc1ccccc1C1C(C(=O)OC)=C(C)N=C(C)/C1=C(\O)OC (stereo not drawn),EC50,Cavia porcellus,0.11 µM
COC(=O)C1=C(C)N=C(C)/C(=C(\O)OC)C1c1cccc(N=[N+]=[N-])c1 (stereo not drawn),Log 1/IC50,[1],8.67
COC(=O)C1=C(C)N=C(C)/C(=C(\O)OC)C1c1cccc(OC(C)=O)c1 (stereo not drawn),EC50,Cavia porcellus,6.03 µM
COC(=O)C1=C(C)N=C(C)/C(=C(\O)OC)C1c1cccc(Cl)c1Cl (stereo not drawn),EC50,Cavia porcellus,0.0191 µM
COC(=O)C1=C(C)N=C(C)/C(=C(\O)OC)C1c1ccccc1Br (stereo not drawn),EC50,Cavia porcellus,0.00759 µM
same,Log 1/IC50,[1],10.49
COC(=O)C1=C(C)N=C(C)/C(=C(\O)OC)C1c1cccc(C)c1 (stereo not drawn),EC50,Cavia porcellus,0.11 µM
same,Log 1/IC50,[1],7.28
CCc1ccccc1C1C(C(=O)OC)=C(C)N=C(C)/C1=C(\O)OC (stereo not drawn),EC50,Cavia porcellus,0.00646 µM
COC(=O)C1=C(C)N=C(C)/C(=C(\O)OC)C1c1ccc(Cl)cc1 (stereo not drawn),EC50,Cavia porcellus,8.13 µM
same,Log 1/IC50,[1],6.22
COC(=O)C1=C(C)N=C(C)/C(=C(\O)OC)C1c1ccc(I)cc1 (stereo not drawn),EC50,Cavia porcellus,22.9 µM
COC(=O)C1=C(C)N=C(C)/C(=C(\O)OC)C1c1c(F)c(F)c(F)c(F)c1F (stereo not drawn),EC50,Cavia porcellus,0.00437 µM
same,Log 1/IC50,[1],10.37
COC(=O)C1=C(C)N=C(C)/C(=C(\O)OC)C1c1cc([N+](=O)[O-])ccc1Cl (stereo not drawn),EC50,Cavia porcellus,0.0302 µM
COC(=O)C1=C(C)N=C(C)/C(=C(\O)OC)C1c1cccc(I)c1 (stereo not drawn),EC50,Cavia porcellus,0.0417 µM
COC(=O)C1=C(C)N=C(C)/C(=C(\O)OC)C1c1cccc(OC)c1 (stereo not drawn),EC50,Cavia porcellus,0.191 µM
same,Log 1/IC50,[1],7.27
COC(=O)C1=C(C)NC(C)=C(C(=O)OC)C1c1ccc(N(C)C)cc1,EC50,Cavia porcellus,100 µM
COC(=O)C1=C(C)N=C(C)/C(=C(\O)OC)C1c1ccccc1C (stereo not drawn),EC50,Cavia porcellus,0.00603 µM
same,Log 1/IC50,[1],8.71
COC(=O)C1=C(C)NC(C)=C(C(=O)OC)C1c1ccccc1,EC50,Cavia porcellus,0.0282 µM
same,Log 1/IC50,[1],7.85
COC(=O)C1=C(C)N=C(C)/C(=C(\O)OC)C1c1cc(Cl)cc(Cl)c1 (stereo not drawn),EC50,Cavia porcellus,0.0933 µM
COC(=O)C1=C(C)N=C(C)/C(=C(\O)OC)C1c1cc([N+](=O)[O-])ccc1O (stereo not drawn),EC50,Cavia porcellus,0.1 µM
COC(=O)C1=C(C)N=C(C)/C(=C(\O)OC)C1c1ccccc1I (stereo not drawn),EC50,Cavia porcellus,0.0468 µM
same,Log 1/IC50,[1],10.8
COC(=O)C1=C(C)N=C(C)/C(=C(\O)OC)C1c1c(Cl)cccc1Cl (stereo not drawn),EC50,Cavia porcellus,0.00191 µM
COC(=O)C1=C(C)N=C(C)/C(=C(\O)OC)C1c1ccccc1N (stereo not drawn),EC50,Cavia porcellus,39.8 µM
COC(=O)C1=C(C)N=C(C)/C(=C(\O)OC)C1c1cccc(Br)c1 (stereo not drawn),EC50,Cavia porcellus,0.00129 µM
COC(=O)C1=C(C)N=C(C)/C(=C(\O)OC)C1c1ccc(C#N)cc1 (stereo not drawn),EC50,Cavia porcellus,3.47 µM
